# Source: PubChem BioAssay (NCI)
#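 48-hour exposure; five concentrations; linearly interpolated endpoints. GI50 marks 50% less growth. The concentration for full growth arrest is given as TGI.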
# How the values were obtained:
# Assay in all cases: NCI tumour cell line growth inhibition, 48 h
# RXF-631 renal = system: RXF-631 renal
# LXFL 529 NSCLC = system: LXFL 529 NSCLC
# SNB-78 CNS = system: SNB-78 CNS
# DLD-1 colon = system: DLD-1 colon
# XF 498 CNS = system: XF 498 CNS
# P388 leukemia = system: P388 leukemia
# SN12K1 renal = system: SN12K1 renal
# P388/ADR leukemia = system: P388/ADR leukemia
# BT-549 breast = system: BT-549 breast
compound,measurement,setting,value
CC(CN(C)C)C(=O)c1ccccc1 (configuration not stated),TGI,RXF-631 renal,> 100 µM
same,TGI,LXFL 529 NSCLC,39.8 µM
same,TGI,SNB-78 CNS,> 64 µM
same,TGI,DLD-1 colon,32.6 µM
same,TGI,XF 498 CNS,45 µM
COc1cc(C2c3cc4c(cc3[C@@H](Oc3ccc(F)cc3)C3COC(=O)[C@H]23)OCO4)cc(OC)c1O (some centres not stated),TGI,P388 leukemia,> 21.2 µM
same,TGI,DLD-1 colon,> 100 µM
same,TGI,SN12K1 renal,> 100 µM
COc1ccc(C2C3CCCC(C3=O)C(c3ccc(OC)cc3)N2N=O)cc1 (configuration not stated),TGI,P388/ADR leukemia,38.3 µM
same,TGI,P388 leukemia,42.9 µM
same,TGI,SNB-78 CNS,> 100 µM
same,TGI,DLD-1 colon,> 100 µM
same,TGI,XF 498 CNS,72.4 µM
same,TGI,SN12K1 renal,> 79.6 µM
ClCc1cccc(CSc2ncnc3c2ncn3Cc2cccc(CCl)c2)c1,GI50,BT-549 breast,1.32 µM
same,TGI,BT-549 breast,2.83 µM
COc1ccc2c(c1)c(=O)c1c(NCCN(C)C)ccc3nnn2c31,TGI,RXF-631 renal,14 µM
same,TGI,LXFL 529 NSCLC,18 µM
same,TGI,SNB-78 CNS,21.8 µM
same,TGI,DLD-1 colon,20 µM
CCOC(=O)Cc1cnc(NC(NC(=O)CC)(C(F)(F)F)C(F)(F)F)s1,TGI,BT-549 breast,> 100 µM
O=C(NNS(=O)(=O)c1ccccc1)c1cccnc1,TGI,BT-549 breast,> 100 µM
